pIC50: −log10 of the molar value.
Experiments:
A549 = A549 wound healing inhibition; conditions: Homo sapiens; A549 cells; read-out: Potency in cell-based assays A549 wound healing inhibition
DU145 = DU145 scattering inhibition; conditions: Homo sapiens, DU-145; DU145 cells; read-out: Potency in cell-based assays DU145 scattering inhibition
VEGF receptor KDR = molecular target: T1, VEGF receptor KDR (Homo sapiens, UniProt P35968); test: In vitro receptor tyrosine kinase assay, VEGF receptor KDR (DELFIA); type: biochemical; conditions: ATP 0.6 uM, enzyme 5 nM; read-out: Potency in enzyme assays VEGF
T1 construct: made in house; host or cells: Sf9 cells (Spodoptera frugiperda), recombinant baculovirus
Source text: (§1) These tests measure the ability of compounds to inhibit the enzymatic activity of recombinant human c-Met/HGF receptor and VEGF receptor enzymatic activity.
In the case of VEGF receptor KDR a 1.6-kb cDNA corresponding to the catalytic domain of VEGFR2 or KDR (Genbank accession number AF035121 amino acid 806 to 1356) is cloned into the Pst I site of the pDEST20 Gateway vector (Invitrogen) for the production of a GST-tagged version of that enzyme. This construct is used to generate recombinant baculovirus using the Bac-to-Bac system according to the manufacturer's instructions (Invitrogen).
(§2) The GST-VEGFR2806-1356 protein is expressed in Sf9 cells (Spodoptera frugiperda) upon infection with recombinant baculovirus construct. Briefly, Sf9 cells grown in suspension and maintained in serum-free medium (Sf900 II supplemented with gentamycin) at a cell density of about 2×10^6 cells/ml are infected with the above-mentioned viruses at a multiplicity of infection (MOI) of 0.1 during 72 hours at 27° C. with agitation at 120 rpm on a rotary shaker. Infected cells are harvested by centrifugation at 398 g for 15 min. Cell pellets are frozen at −80° C. until purification is performed.
All steps described in cell extraction and purification are performed at 4° C. Frozen Sf9 cell pellets infected with the GST-VEGFR2806-1356 recombinant baculovirus re thawed and gently resuspended in Buffer A (PBS pH 7.3 supplemented with 1 μg/ml pepstatin, 2 μg/ml Aprotinin and leupeptin, 50 μg/ml PMSF, 50 μg/ml TLCK and 10 μM E64 and 0.5 mM DTT) using 3 ml of buffer per gram of cells. Suspension is Dounce homogenized and 1% Triton X-100 is added to the homogenate after which it is centrifuged at 22500 g, 30 min., 4° C. The supernatant (cell extract) is used as starting material for purification of GST-VEGFR2806-1356.
The supernatant is loaded onto a GST-agarose column (Sigma) equilibrated with PBS pH 7.3. Following a four column volume (CV) wash with PBS pH 7.3+1% Triton X-100 and 4 CV wash with buffer B (50 mM Tris pH 8.0, 20% glycerol and 100 mM NaCl), bound proteins are step eluted with 5 CV of buffer B supplemented with 5 mM DTT and 15 mM glutathion. GST-VEGFR2806-1356 enriched fractions from this chromatography step are pooled based on U.V. trace i.e. fractions with high O.D^-280- Final GST-VEGFR2806-1356 protein preparations concentrations are about 0.7 mg/ml with purity approximating 70%. Purified GST-VEGFR2806-1356 protein stocks are aliquoted and frozen at −80° C. prior to use in enzymatic assay.
Inhibition of c-Met/HGF receptor and VEGFR/KDR is measured in a DELFIA™ assay (Perkin Elmer). The substrate poly(Glu4,Tyr) is immobilized onto black high-binding polystyrene 96-well plates. The coated plates are washed and stored at 4° C. During the assay, enzymes are pre-incubated with inhibitor and Mg-ATP on ice in polypropylene 96-well plates for 4 minutes, and then transferred to the coated plates. The subsequent kinase reaction takes place at 30° C. for 10-30 minutes. ATP concentrations in the assay are 10 uM for C-Met (5× the Km) and 0.6 uM for VEGFR/KDR (2× the Km). Enzyme concentration is 25 nM (C-Met) or 5 nM (VEGFR/KDR). After incubation, the kinase reactions are quenched with EDTA and the plates are washed. Phosphorylated product is detected by incubation with Europium-labeled anti-phosphotyrosine MoAb. After washing the plates, bound MoAb is detected by time-resolved fluorescence in a Gemini SpectraMax reader (Molecular Devices). Compounds are evaluated over a range of concentrations and IC50's (concentration of compounds giving 50% inhibition of enzymatic activity) are determined.

[1] = molecular target: T2, recombinant human c-Met/HGF receptor (Homo sapiens, UniProt P08581); test: In vitro receptor tyrosine kinase assay, c-Met (DELFIA); type: biochemical; conditions: ATP 10 uM, enzyme 25 nM; read-out: Potency in enzyme assays Cmet
T2 construct: His tag; made in house; host or cells: Hi-5 cells (Trichoplusia ni), recombinant baculovirus
Source text: as §1
A 1.3-kb cDNA corresponding to the intracellular domain of c-Met or c-Met IC (Genbank accession number NP000236-1 amino acid […]) is cloned into the BamHI/XhoI sites of the pBlueBacHis2A vector (Invitrogen) for the production of a histidine-tagged version of that enzyme. This construct is used to generate recombinant baculovirus using the Bac-N-Blue™ system according to the manufacturer's instructions (Invitrogen).
as §2, with “The c-Met IC” for “The GST-VEGFR2806-1356”, “in Hi-5” for “in Sf9”, “cells (Trichoplusia Ni)” for “cells (Spodoptera frugiperda)”, “Briefly, Hi-5” for “Briefly, Sf9”, “of 0.2” for “of 0.1”
All steps described in cell extraction and purification are performed at 4° C. Frozen Hi-5 cell pellets infected with the C-Met IC recombinant baculovirus are thawed and gently resuspended in Buffer A (20 mM Tris pH 8.0, 10% glycerol, 1 μg/ml pepstatin, 2 μg/ml Aprotinin and leupeptin, 50 μg/ml PMSF, 50 μg/ml TLCK and 10 μM E64, 0.5 mM DTT and 1 mM Levamisole) using 3 ml of buffer per gram of cells. The suspension is Dounce homogenized after which it is centrifuged at 22500 g, 30 min., 4° C. The supernatant (cell extract) is used as starting material for purification of c-Met IC.
The supernatant is loaded onto a QsepharoseFF column (Amersham Biosciences) equilibrated with Buffer B (20 mM Tris pH 8.0, 10% glycerol) supplemented with 0.05M NaCl. Following a ten column volume (CV) wash with equilibration buffer, bound proteins are eluted with a 5 CV salt linear gradient spanning from 0.05 to 1M NaCl in Buffer B. Typically, the conductivity of selected fractions rank between 6.5 and 37 mS/cm. This Qsepharose eluate has an estimated NaCl concentration of 0.33M and is supplemented with a 5M NaCl solution in order to increase NaCl concentration at 0.5M and also with a 5M Imidazole (pH 8.0) solution to achieve a final imidazole concentration of 15 mM. This material is loaded onto a HisTrap affinity column (GE Healthcare) equilibrated with Buffer C (50 mM NaPO4 pH 8.0, 0.5M NaCl, 10% glycerol) supplemented with 15 mM imidazole. After a 10 CV wash with equilibration buffer and an 8 CV wash with buffer C+40 mM imidazole, bound proteins are eluted with an 8 CV linear gradient (15 to 500 mM) of imidazole in buffer C. C-Met IC enriched fractions from this chromatography step are pooled based on SDS-PAGE analysis. This pool of enzyme undergoes buffer exchange using PD-10 column (GE Healthcare) against buffer D (25 mM HEPES pH 7.5, 0.1M NaCl, 10% glycerol and 2 mM β-mercaptoethanol). Final C-Met IC protein preparations concentrations are about 0.5 mg/ml with purity approximating 80%. Purified c-Met IC protein stocks are supplemented with BSA at 1 mg/ml, aliquoted and frozen at −80° C. prior to use in enzymatic assay.
Inhibition of c-Met/HGF receptor and VEGFR/KDR is measured in a DELFIA™ assay (Perkin Elmer). The substrate poly(Glu4,Tyr) is immobilized onto black high-binding polystyrene 96-well plates. The coated plates are washed and stored at 4° C. During the assay, enzymes are pre-incubated with inhibitor and Mg-ATP on ice in polypropylene 96-well plates for 4 minutes, and then transferred to the coated plates. The subsequent kinase reaction takes place at 30° C. for 10-30 minutes. ATP concentrations in the assay are 10 uM for C-Met (5× the Km) and 0.6 uM for VEGFR/KDR (2× the Km). Enzyme concentration is 25 nM (C-Met) or 5 nM (VEGFR/KDR). […]

T2 sequence (P08581 1078-1337): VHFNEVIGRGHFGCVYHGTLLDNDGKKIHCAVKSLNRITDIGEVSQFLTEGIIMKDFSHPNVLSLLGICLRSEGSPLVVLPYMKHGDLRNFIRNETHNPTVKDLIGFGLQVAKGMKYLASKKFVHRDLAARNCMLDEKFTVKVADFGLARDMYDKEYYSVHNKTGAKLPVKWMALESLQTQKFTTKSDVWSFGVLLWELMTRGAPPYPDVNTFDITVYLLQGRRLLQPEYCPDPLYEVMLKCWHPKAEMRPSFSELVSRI
T1 sequence (P35968 806-1356): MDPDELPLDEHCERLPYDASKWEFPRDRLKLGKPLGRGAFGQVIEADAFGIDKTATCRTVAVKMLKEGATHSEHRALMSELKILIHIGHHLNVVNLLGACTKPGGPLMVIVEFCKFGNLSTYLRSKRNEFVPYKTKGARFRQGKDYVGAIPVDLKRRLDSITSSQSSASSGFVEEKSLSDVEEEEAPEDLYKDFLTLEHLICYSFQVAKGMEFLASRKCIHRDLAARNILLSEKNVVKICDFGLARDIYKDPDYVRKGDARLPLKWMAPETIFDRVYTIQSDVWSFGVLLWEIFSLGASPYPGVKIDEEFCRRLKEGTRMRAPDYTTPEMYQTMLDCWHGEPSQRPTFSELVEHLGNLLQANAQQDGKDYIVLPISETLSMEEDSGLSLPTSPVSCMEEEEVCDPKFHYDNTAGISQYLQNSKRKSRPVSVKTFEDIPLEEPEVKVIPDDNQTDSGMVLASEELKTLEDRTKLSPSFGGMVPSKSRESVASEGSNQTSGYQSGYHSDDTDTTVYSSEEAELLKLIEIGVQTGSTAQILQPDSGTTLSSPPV

SMILES | pIC50 (A549) | pIC50 (DU145) | pIC50 (VEGF receptor KDR) | pIC50 [1]
CN(C)[C@@H]1CCN(C(=O)Nc2cc(Oc3ccc(NC(=O)N4CCN(c5ccc(F)cc5)C4=O)cc3F)ccn2)C1 [Compound 18g, (R)-N-(4-(2-(3-(dimethylamino)pyrrolidine-1-carboxamido)pyridin-4-yloxy)-3-fluorophenyl)-3-(4-fluorophenyl)-2-oxoimidazolidine-1-carboxamide] | ≤ 6.00 | ≤ 6.00 | > 6.60 | > 6.60
CN(C)[C@H]1CCN(C(=O)Nc2cc(Oc3ccc(NC(=O)N4CCN(c5ccc(F)cc5)C4=O)cc3F)ccn2)C1 [Compound 18h, (S)-N-(4-(2-(3-(dimethylamino)pyrrolidine-1-carboxamido)pyridin-4-yloxy)-3-fluorophenyl)-3-(4-fluorophenyl)-2-oxoimidazolidine-1-carboxamide] | ≤ 6.00 | ≤ 6.00 | > 6.60 | > 6.60
CN(C)CCCOC(=O)Nc1cc(Oc2ccc(NC(=O)N3CCN(c4ccccc4)C3=O)cc2F)ccn1 [Compound 18i, 3-(dimethylamino)propyl4-(2-fluoro-4-(2-oxo-3-phenylimidazolidine-1-carboxamido)phenoxy),pyridin-2-ylcarbamate] | 5.30 to 6.00 | 5.30 to 6.00 | ≤ 6.00 | > 6.60
O=C(Nc1ccc(Oc2ccncc2)c(F)c1)N1CCN(c2cccc(C(F)(F)F)c2)C1=O [Compound 21c, N-(3-fluoro-4-(pyridin-4-yloxy)phenyl)-2-oxo-3-(3-(trifluoromethyl)phenyl)imidazolidine-1-carboxamide] | 5.00 to 5.30 | 5.00 to 5.30 | ≤ 6.00 | ≤ 6.00
O=C(Nc1ccc(Oc2ccncc2)c(F)c1)N1CCN(c2ccc(Cl)cc2)C1=O [Compound 21f, 3-(4-chlorophenyl)-N-(3-fluoro-4-(pyridin-4-yloxy)phenyl)-2-oxoimidazolidine-1-carboxamide] | 5.30 to 6.00 | 5.00 to 5.30 | ≤ 6.00 | 6.30 to 6.60
O=C(Nc1ccc(Oc2ccncc2)c(F)c1)N1CCN(c2cccc(Cl)c2)C1=O [Compound 21g, 3-(3-chlorophenyl)-N-(3-fluoro-4-(pyridin-4-yloxy)phenyl)-2-oxoimidazolidine-1-carboxamide] | 5.00 to 5.30 | 5.00 to 5.30 | ≤ 6.00 | 6.00 to 6.30
O=C(Nc1ccc(Oc2ccncc2)c(F)c1)N1CCN(c2ccccc2Cl)C1=O [Compound 21h, 3-(2-chlorophenyl)-N-(3-fluoro-4-(pyridin-4-yloxy)phenyl)-2-oxoimidazolidine-1-carboxamide] | 5.30 to 6.00 | ≤ 6.00 | ≤ 6.00 | 6.00 to 6.30
CC(=O)Nc1ccc(Oc2cccc(NC(=O)N3CCN(c4ccccc4)C3=O)c2)cn1 [Compound 31a, N-(3-(6-acetamidopyridin-3-yloxy)phenyl)-2-oxo-3-phenylimidazolidine-1′-carboxamide] | 5.30 to 6.00 | 5.00 to 5.30 | ≤ 6.00 | 6.30 to 6.60
O=C(Nc1ccc(Oc2ccnc(Nc3ccccc3)n2)c(F)c1)N1CCN(c2ccccc2)C1=O [Compound 61a, N-(3-fluoro-4-(2-(phenylamino)pyrimidin-4-yloxy)phenyl)-2-oxo-3-phenyl-imidazolidine-1-carboxamide] | 5.00 to 5.30 | < 5.00 | ≤ 6.00 | 6.00 to 6.30
COc1ccc(Nc2nccc(Oc3ccc(NC(=O)N4CCN(c5ccccc5)C4=O)cc3F)n2)cc1 [Compound 61b, N-(3-fluoro-4-(2-(4-methoxyphenylamino)pyrimidin-4-yloxy)phenyl)-2-oxo-3-phenylimidazolidine-1-carboxamide] | 5.00 to 5.30 | 5.00 to 5.30 | ≤ 6.00 | 6.00 to 6.30
O=C(Nc1ccc(Oc2ccnc(Nc3ccccc3)c2)c(F)c1)N1CCN(c2ccccc2)C1=O [Compound 70, N-(3-fluoro-4-(2-(phenylamino)pyridin-4-yloxy)phenyl)-2-oxo-3-phenylimidazolidine-1-carboxamide] | 5.30 to 6.00 | 5.00 to 5.30 | ≤ 6.00 | > 6.60
CNC(=O)c1cc(Oc2ccc(NC(=O)N3CCN(c4ccccc4)C3=O)cc2F)ccn1 [Compound 87a, 4-(2-fluoro-4-(2-oxo-3-phenylimidazolidine-1-carboxamido)phenoxy)-N-methylpicolinamide] | 5.30 to 6.00 | 5.00 to 5.30 | 6.30 to 6.60 | 6.30 to 6.60

From patent publication US20080255155A1, “KINASE INHIBITORS AND USES THEREOF” (priority 2006, published 2008)
